Test results as given in the supplement of paper PMC10307832.

Tests used:
Test in all cases: relative viability (nuclei count vs DMSO), 5 days (fraction); higher = more cells survive
Pictilisib + Trametinib = compound: CS(=O)(=O)N1CCN(Cc2cc3nc(-c4cccc5[nH]ncc45)nc(N4CCOCC4)c3s2)CC1 [Pictilisib] + CC(=O)Nc1cccc(-n2c(=O)n(C3CC3)c(=O)c3c(Nc4ccc(I)cc4F)n(C)c(=O)c(C)c32)c1 [Trametinib] (partner 0.02 µM)
Method in brief: (§1)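 Cells from lung cancer lines were seeded into 1536-well plates and, one day later, dosed by pin tool. Treatments were either a single drug or a fixed dose of an anchor drug with five library-drug doses (not always all listed) in √10 steps. After 5 days, nuclei were stained in a one-step fixation (final 0.05% Triton X-100, 1% formaldehyde, 1 ug/ml Hoechst) and counted on 4× images, and relative viability is the treated-to-vehicle nuclei ratio, as the median of duplicate plates.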

Pictilisib + Pemetrexed = compound: CS(=O)(=O)N1CCN(Cc2cc3nc(-c4cccc5[nH]ncc45)nc(N4CCOCC4)c3s2)CC1 [Pictilisib] + Nc1nc2[nH]cc(CCc3ccc(C(=O)N[C@@H](CCC(=O)O)C(=O)O)cc3)c2c(=O)[nH]1 [Pemetrexed] (partner 0.2 µM)
Method in brief: as §1

Pictilisib + Palbociclib = compound: CS(=O)(=O)N1CCN(Cc2cc3nc(-c4cccc5[nH]ncc45)nc(N4CCOCC4)c3s2)CC1 [Pictilisib] + CC(=O)c1c(C)c2cnc(Nc3ccc(N4CCNCC4)cn3)nc2n(C2CCCC2)c1=O [Palbociclib] (partner 0.5 µM)
Method in brief: as §1

MK-2206 + Pemetrexed = compound: NC1(c2ccc(-c3nc4ccn5c(=O)[nH]nc5c4cc3-c3ccccc3)cc2)CCC1 [MK-2206] + Nc1nc2[nH]cc(CCc3ccc(C(=O)N[C@@H](CCC(=O)O)C(=O)O)cc3)c2c(=O)[nH]1 [Pemetrexed] (partner 0.2 µM)
Method in brief: as §1

Pictilisib + Luminespib = compound: CS(=O)(=O)N1CCN(Cc2cc3nc(-c4cccc5[nH]ncc45)nc(N4CCOCC4)c3s2)CC1 [Pictilisib] + CCNC(=O)c1noc(-c2cc(C(C)C)c(O)cc2O)c1-c1ccc(CN2CCOCC2)cc1 [Luminespib] (partner 0.01 µM)
Method in brief: as §1

| Cell Line | relative viability (Pictilisib + Trametinib; first compound 0.02 µM) | relative viability (Pictilisib + Trametinib; first compound 0.06325 µM) | relative viability (Pictilisib + Trametinib; first compound 0.6325 µM) | relative viability (Pictilisib + Trametinib; first compound 2 µM) | relative viability (Pictilisib + Pemetrexed; first compound 0.02 µM) | relative viability (Pictilisib + Pemetrexed; first compound 0.06325 µM) | relative viability (Pictilisib + Pemetrexed; first compound 0.6325 µM) | relative viability (Pictilisib + Pemetrexed; first compound 2 µM) | relative viability (Pictilisib + Palbociclib; first compound 0.02 µM) | relative viability (Pictilisib + Palbociclib; first compound 0.06325 µM) | relative viability (Pictilisib + Palbociclib; first compound 0.6325 µM) | relative viability (Pictilisib + Palbociclib; first compound 2 µM) | relative viability (MK-2206 + Pemetrexed; first compound 0.01 µM) | relative viability (MK-2206 + Pemetrexed; first compound 0.03162 µM) | relative viability (MK-2206 + Pemetrexed; first compound 0.3162 µM) | relative viability (MK-2206 + Pemetrexed; first compound 1 µM) | relative viability (Pictilisib + Luminespib; first compound 0.02 µM) | relative viability (Pictilisib + Luminespib; first compound 0.06325 µM) | relative viability (Pictilisib + Luminespib; first compound 0.6325 µM) | relative viability (Pictilisib + Luminespib; first compound 2 µM) |
| --- | --- | --- | --- | --- | --- | --- | --- | --- | --- | --- | --- | --- | --- | --- | --- | --- | --- | --- | --- | --- |
| HCC-366 | 0.374 | 0.2 | 0.157 | 0.0661 | 0.172 | 0.195 | 0.248 | 0.122 | 0.434 | 0.305 | 0.133 | 0.0473 | 0.154 | 0.166 | 0.302 | 0.266 |  |  |  |  |
| HCC-827 | 0.519 | 0.422 | 0.378 | 0.235 | 0.265 | 0.28 | 0.196 | 0.221 | 0.517 | 0.415 | 0.234 | 0.188 | 0.272 | 0.242 | 0.268 | 0.274 | 1.01 | 0.472 | 0.224 | 0.152 |
| HOP-62 | 0.396 | 0.356 | 0.332 | 0.178 | 0.319 | 0.271 | 0.267 | 0.271 | 0.526 | 0.423 | 0.399 | 0.287 | 0.381 | 0.272 | 0.273 | 0.375 | 1.01 | 0.906 | 0.803 | 0.874 |
| LC-2-ad | 0.892 | 0.945 | 0.73 | 0.629 | 0.277 | 0.278 | 0.272 | 0.23 | 0.486 | 0.532 | 0.298 | 0.265 | 0.282 | 0.254 | 0.28 | 0.25 | 1.17 | 1.07 | 0.757 | 0.607 |
| LCLC-97TM1 | 0.204 | 0.226 | 0.142 | 0.0739 | 0.155 | 0.169 | 0.169 | 0.147 | 0.206 | 0.269 | 0.125 | 0.0838 | 0.186 | 0.138 | 0.146 | 0.189 | 0.751 | 0.867 | 0.442 | 0.224 |
| LCLC-103H | 0.649 | 0.711 | 0.501 | 0.558 | 0.468 | 0.419 | 0.475 | 0.428 | 0.525 | 0.485 | 0.44 | 0.351 | 0.441 | 0.435 | 0.485 | 0.442 | 0.989 | 0.903 | 0.606 | 0.438 |
| LK-2 | 0.738 | 0.654 | 0.558 | 0.257 | 0.247 | 0.281 | 0.116 | 0.14 | 0.588 | 0.673 | 0.354 | 0.259 | 0.265 | 0.309 | 0.246 | 0.252 | 0.198 | 0.144 | 0.152 | 0.188 |
| LOU-NH91 | 0.867 | 0.715 | 0.68 | 0.567 | 0.381 | 0.368 | 0.4 | 0.372 | 0.524 | 0.546 | 0.563 | 0.514 | 0.366 | 0.406 | 0.345 | 0.356 | 0.347 | 0.338 | 0.321 | 0.274 |
| LU99A | 0.579 | 0.478 | 0.407 | 0.239 | 0.198 | 0.179 | 0.19 | 0.164 | 0.426 | 0.288 | 0.316 | 0.177 | 0.174 | 0.152 | 0.186 | 0.203 | 0.254 | 0.228 | 0.251 | 0.204 |
| LXF-289 | 0.693 | 0.691 | 0.705 | 0.385 | 0.948 | 0.874 | 0.983 | 0.669 | 0.584 | 0.588 | 0.621 | 0.398 | 0.886 | 0.873 | 0.956 | 1.17 | 0.687 | 0.514 | 0.78 | 0.344 |
| NCI-H23 | 0.367 | 0.319 | 0.241 | 0.163 | 0.618 | 0.757 | 0.5 | 0.374 | 0.505 | 0.439 | 0.351 | 0.186 | 0.713 | 0.559 | 0.651 | 0.64 | 0.203 | 0.219 | 0.198 | 0.203 |
| NCI-H322M | 0.516 | 0.529 | 0.407 | 0.394 | 0.541 | 0.616 | 0.584 | 0.239 | 0.496 | 0.495 | 0.448 | 0.415 | 0.64 | 0.634 | 0.666 | 0.679 | 0.857 | 0.763 | 0.511 | 0.263 |
| NCI-H596 | 0.795 | 0.764 | 0.515 | 0.327 | 0.472 | 0.508 | 0.509 | 0.318 |  |  |  |  | 0.45 | 0.567 | 0.502 | 0.498 | 0.942 | 0.92 | 0.442 | 0.153 |
| NCI-H727 | 0.409 | 0.367 | 0.344 | 0.331 |  |  |  |  | 0.595 | 0.65 | 0.541 | 0.496 |  |  |  |  | 0.443 | 0.334 | 0.29 | 0.346 |
| NCI-H1563 |  |  |  |  | 0.742 | 0.764 | 0.635 | 0.45 |  |  |  |  | 0.746 | 0.771 | 0.697 | 0.744 | 0.44 | 0.513 | 0.497 | 0.468 |
| NCI-H1623 |  |  |  |  |  |  |  |  |  |  |  |  |  |  |  |  | 0.452 | 0.455 | 0.379 | 0.303 |
| NCI-H1648 | 0.363 | 0.401 | 0.236 | 0.222 | 0.72 | 0.802 | 0.614 | 0.41 | 0.248 | 0.236 | 0.256 | 0.216 | 0.719 | 0.651 | 0.691 | 0.786 |  |  |  |  |
